Data published in patent US20250262152A1, “DEVICES, SYSTEMS, KITS, AND METHODS FOR DRUG DELIVERY TO THE SPINAL CORD” (Ohio State Innovation Foundation, priority 2022, published 2025).

Assay: proof-of-principle fluorescence tracer study: delivery to the spinal cord with dumbbell-shaped dual chamber stentgraft and histamine portal
Type: in vivo
Protocol: As a proof-of-principle study, we evaluated this strategy by using a dumbbell-shaped dual chamber stentgraft to deliver a fluorescent tracer (fluorescein dye) to the spinal cord. In this fluorescence tracer study, delivery of the tracer to the spinal cord using the dumbbell stentgraft was performed using a histamine portal (see FIGS. 3A-3C and FIG. 5). The dual chamber stent was used to deliver a “pulse” of histamine specifically to the spinal cord region of interest to create a “portal” in the BBB (i.e., a local increase in BBB permeability).
Dual chamber, retrievable stent graft: Stents were laser cut from the shape memory alloy, nitinol, and thermally shapeset into a dumbbell shape. The scaffold was affixed to a permanently attached delivery/retrieval wire, encapsulated in the polymer polytetrafluoroethelene (Zeus, Inc) with a perfusion cannula to the outer chamber and compressed into a sheath for endovascular delivery.

delivery of fluorescein to the spinal cord (local administration in combination with portal agent (histamine) as compared to intravascular tracer injection alone, FIG. 5): much higher
Compound: O=C1OC2(c3ccc(O)cc3Oc3cc(O)ccc32)c2ccccc21 [fluorescein]
staining of spinal cord cross sections viewed under UV Woods lamp (histamine pulse followed by tracer delivered to outer chamber of dual chamber stentgraft, FIG. 3C): successful staining of the entirety of the spinal cord
